Assay results as given in ChEMBL document CHEMBL5247678, “Design, Synthesis, and Structure-Activity Relationships of Biaryl Anilines as Subtype-Selective PPAR-alpha Agonists” (ACS Med Chem Lett, 2023).

Assays:
[1] = Cytotoxicity against human RPE cells measured upto 50 uM; type: toxicity, cell-based
[2] = Cytotoxicity against human RPE cells assessed as cell viability at 50 uM; type: toxicity, cell-based

| Compound | Activity [1] | Activity [2] |
| --- | --- | --- |
| O=C(O)c1cc(F)cc(NCc2ccc(-c3ccccc3)cc2)c1 | Non-Toxic | – |
| O=C(O)c1cc(F)cc(NCc2ccc(-c3ccccc3C(F)(F)F)cc2)c1 | Non-Toxic | – |
| O=C(O)c1cc(F)cc(NCc2cn(-c3ccc(C(F)(F)F)cc3)nn2)c1 | Non-Toxic | Toxic |
| O=C(O)c1cc(F)cc(NCc2ccc(-c3ccc(C(F)(F)F)cc3)cc2)c1 | Non-Toxic | – |
